Experimental data from ChEMBL document CHEMBL5338792, “Degradation of Rat Sarcoma Proteins Targeting the Post-Translational Prenyl Modifications via Cascade Azidation/Fluorination and Click Reaction” (J Med Chem, 2023).
Active and inactive are the calls of the source. The rule behind the calls is not given here.

Columns and labels:
[1] = target: T1, Protein cereblon/GTPase HRas/GTPase NRas/GTPase KRas (Homo sapiens) (UniProt P01112+P01111+P01116+Q96SW2); assay: SacrPROTAC activity at E3 ubiquitin ligase/RAS in TMSN3/Selectfluor-treated human HeLa cells assessed as induction of RAS degradation at 200 uM measured after 24 hrs in presence of propargyl pomalidomide by Western blot analysis; format: cell-based
HeLa [2] = assay: SarcPROTAC activity at VHL/RAS in TMSN3/Selectfluor-treated human HeLa cells at 50 uM in presence of CuBr/TBTA incubated for 24 hrs by Western blot analysis; format: cell-based
A549 [3] = assay: SarcPROTAC activity at VHL/RAS in TMSN3/Selectfluor-treated human A549 cells at 50 uM in presence of CuBr/TBTA incubated for 24 hrs by Western blot analysis; format: cell-based
[4] = target: T1, Protein cereblon/GTPase HRas/GTPase NRas/GTPase KRas (Homo sapiens); assay: SacrPROTAC activity at E3 ubiquitin ligase/RAS in TMSN3/Selectfluor-treated human HeLa cells assessed as induction of RAS degradation incubated for 24 hrs by Western blot analysis; format: cell-based; conditions: dose <= 200.0 µM
[5] = target: T1, Protein cereblon/GTPase HRas/GTPase NRas/GTPase KRas (Homo sapiens); assay: SacrPROTAC activity at E3 ubiquitin ligase/RAS in TMSN3/Selectfluor-treated human HeLa cells assessed as induction of RAS degradation at 200 uM measured after 24 hrs by Western blot analysis; format: cell-based
[6] = target: T1, Protein cereblon/GTPase HRas/GTPase NRas/GTPase KRas (Homo sapiens); assay: SacrPROTAC activity at E3 ubiquitin ligase/RAS in TMSN3/Selectfluor-treated human HeLa cells assessed as induction of RAS degradation at 75 uM incubated for >48 hrs by Western blot analysis; format: cell-based
[7] = target: T1, Protein cereblon/GTPase HRas/GTPase NRas/GTPase KRas (Homo sapiens); assay: SacrPROTAC activity at E3 ubiquitin ligase/RAS in TMSN3/Selectfluor-treated human HeLa cells assessed as induction of RAS degradation at 200 uM measured after 24 hrs in presence of PYR-41 by Western blot analysis; format: cell-based
[8] = target: T1, Protein cereblon/GTPase HRas/GTPase NRas/GTPase KRas (Homo sapiens); assay: SacrPROTAC activity at E3 ubiquitin ligase/RAS in TMSN3/Selectfluor-treated human HeLa cells assessed as induction of RAS degradation at 200 uM measured after 24 hrs in presence of methyl propargyl pomalidomide by Western blot analysis; format: cell-based
HeLa [9] = assay: Downregulation of HRAS in TMSN3/Selectfluor-treated human HeLa cells at 50 to 200 uM incubated for 24 hrs in presence of CuBr/TBTA by TMT mass spectrometric analysis; format: functional, cell-based; conditions: dose 50-200 µM
HeLa [10] = assay: Upregulation of GSTP1 in TMSN3/Selectfluor-treated human HeLa cells at 50 to 200 uM incubated for 24 hrs in presence of CuBr/TBTA by TMT mass spectrometric analysis; format: functional, cell-based; conditions: dose 50-200 µM
A549 [11] = assay: SacrPROTAC activity at E3 ubiquitin ligase/RAS in TMSN3/Selectfluor-treated human A549 cells assessed as induction of RAS degradation at 200 uM measured for 48 hrs by Western blot analysis; format: functional, cell-based
HT-29 [12] = assay: SacrPROTAC activity at E3 ubiquitin ligase/RAS in TMSN3/Selectfluor-treated human HT-29 cells assessed as induction of RAS degradation at 100 to 200 uM measured after 24 hrs by Western blot analysis; format: functional, cell-based; conditions: dose 100-200 µM
MCF7 [13] = assay: SacrPROTAC activity at E3 ubiquitin ligase/RAS in TMSN3/Selectfluor-treated human MCF7 cells assessed as induction of RAS degradation at 200 uM measured after 24 hrs by Western blot analysis; format: functional, cell-based
HT-29 [14] = assay: SacrPROTAC activity at E3 ubiquitin ligase/RAS in TMSN3/Selectfluor-treated human HT-29 cells assessed as induction of RAS degradation at 100 to 200 uM measured for 12 to 24 hrs by Western blot analysis; format: functional, cell-based; conditions: dose 100-200 µM, time 12-24 hrs
MCF7 [15] = assay: SacrPROTAC activity at E3 ubiquitin ligase/RAS in TMSN3/Selectfluor-treated human MCF7 cells assessed as induction of RAS degradation at 200 uM measured upto 48 hrs by Western blot analysis; format: functional, cell-based
HT-29 [16] = assay: Inhibition of […] in TMSN3/Selectfluor-treated human HT-29 cells upto 200 uM in presence of CuBr/TBTA by CCK8 assay; format: functional, cell-based
HeLa [17] = assay: Induction of apoptosis in TMSN3/Selectfluor-treated human HeLa cells at 200 uM in presence of CuBr/TBTA incubated for 24 hrs by annexin V-FITC/PI staining based flow cytometry; format: functional, cell-based

T1 sequence (P01111 whole entry, looked up): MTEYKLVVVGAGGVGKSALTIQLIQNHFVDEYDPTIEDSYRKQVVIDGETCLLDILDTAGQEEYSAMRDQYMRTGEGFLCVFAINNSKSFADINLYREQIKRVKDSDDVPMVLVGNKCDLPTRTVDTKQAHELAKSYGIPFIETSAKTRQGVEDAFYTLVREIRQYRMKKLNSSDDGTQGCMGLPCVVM
T1 sequence (P01112 whole entry, looked up): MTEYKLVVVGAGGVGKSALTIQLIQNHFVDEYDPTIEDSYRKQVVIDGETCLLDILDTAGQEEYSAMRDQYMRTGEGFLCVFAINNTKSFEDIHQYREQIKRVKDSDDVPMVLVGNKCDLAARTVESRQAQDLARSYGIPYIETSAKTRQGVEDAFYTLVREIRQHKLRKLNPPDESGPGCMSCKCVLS
T1 sequence (P01116 whole entry, looked up): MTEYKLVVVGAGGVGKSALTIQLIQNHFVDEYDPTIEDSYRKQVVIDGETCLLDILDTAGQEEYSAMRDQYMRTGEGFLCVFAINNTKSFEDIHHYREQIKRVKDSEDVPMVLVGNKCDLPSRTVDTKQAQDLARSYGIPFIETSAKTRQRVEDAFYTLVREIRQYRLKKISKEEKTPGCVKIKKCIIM
T1 sequence (Q96SW2 whole entry, looked up): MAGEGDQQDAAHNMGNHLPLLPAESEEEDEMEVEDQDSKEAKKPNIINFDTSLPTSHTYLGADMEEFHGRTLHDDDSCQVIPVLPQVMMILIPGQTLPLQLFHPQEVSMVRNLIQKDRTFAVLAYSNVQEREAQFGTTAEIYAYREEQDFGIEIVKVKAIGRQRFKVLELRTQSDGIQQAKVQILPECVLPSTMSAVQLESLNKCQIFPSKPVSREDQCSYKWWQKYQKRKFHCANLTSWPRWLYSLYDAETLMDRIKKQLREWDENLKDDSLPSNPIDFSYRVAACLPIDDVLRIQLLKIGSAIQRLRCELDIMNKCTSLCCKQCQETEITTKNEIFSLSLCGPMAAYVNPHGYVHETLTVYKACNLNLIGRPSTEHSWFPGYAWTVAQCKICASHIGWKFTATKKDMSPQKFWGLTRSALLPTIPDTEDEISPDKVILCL

C#CCNCC(=O)Nc1cccc2c1C(=O)N(C1CCC(=O)N(C)C1=O)C2=O (configuration not stated)
Activity [1]: inactive

C#CCCOC(=O)N[C@H](C(=O)N1C[C@H](O)C[C@H]1C(=O)NCc1ccc(-c2scnc2C)cc1)C(C)(C)C
Activity (HeLa [2]): Active | Activity (A549 [3]): Active

C#CCNCC(=O)Nc1cccc2c1C(=O)N(C1CCC(=O)NC1=O)C2=O (configuration not stated)
Activity [4]: Dose-Dependent Effect | Activity [5]: Active | Activity [6]: Active | Activity [7]: inactive | Activity [8]: Active | Activity (HeLa [9]): Active | Activity (HeLa [10]): Active | Activity (A549 [11]): Active | Activity (HT-29 [12]): Active | Activity (MCF7 [13]): Active | Activity (HT-29 [14]): Active | Activity (MCF7 [15]): inactive | inhibition (HT-29 [16]): Active | Activity (HeLa [17]): Active
